# Test results from patent publication US20130189354A1, “Novel Pharmaceutical Compositions for Treating Chronic Pain and Pain Associated with Neuropathy” (priority 2010, published 2013).
# Structures can show the parent of a compound that is named as a salt. Where two headings read alike, the source gives them in different places.
# How the values were obtained:
# μ-opiate receptor = μ-opiate receptor (Homo sapiens, UniProt P35372); settings: cited from earlier work
# [1] = cited from earlier work
# [2] = system: diabetic neuropathy and fibromyalgia; assay: Pain relief in patients with diabetic neuropathy and fibromyalgia; format: in vivo, human; settings: 400 mg of tramadol per day
# From the text: In certain preferred embodiments, the invention is directed in part to synergistic combinations of dextromethorphan or other NMDA receptor antagonist in an amount sufficient to render a therapeutic effect together with an anticonvulsant and/or a tricyclic anti-depressant and tramadol or its analog, such that an analgesic effect is attained which is at least about 5 (and preferably at least about 10) times greater than that obtained with the dose of tramadol or its analog alone. This is exemplified by the apparent fact that patients with diabetic neuropathy and fibromyalgia, who could not get even 30-40% reduction in pain even with the administration of 400 mg of tramadol per day, can have shown 90-100% pain relief with the inventive composition containing 35 mg of tramadol, 45 mg of dextromethorphan and 90 mg of gabapentin over a period of 12-16 hours.
# (§1) The synergistic effect of the combination can further be appreciated using Table 1.
# pain [3] = settings: single oral dose of tramadol 100 mg; cited from earlier work
# postherpetic neuralgia [4] = settings: oral; cited from earlier work
# [5] = system: painful diabetic neuropathy; settings: oral; cited from earlier work
# central poststroke pain = settings: 10 of 15 patients; cited from earlier work
# [6] = rats, i.v. administration; cited from earlier work
# [7] = system: α2δ subunit of voltage-gated calcium channels; settings: cited from earlier work
# [8] = system: neuropathy-induced allodynia; settings: in vivo; cited from earlier work
# Diabetic Neuropathy [9] = settings: literature values; Tramadol Hydrochloride 400 mg/day (Sindrup 1999), Gabapentin 3600 mg/day (Marchettini 2004); cited from earlier work
# Fibromyalgia [10] = settings: literature values; Tramadol Hydrochloride 400 mg/day (Biasi 1998; Russell 2000), Gabapentin 3600 mg/day (Lesley 2007); cited from earlier work
# [11] = patients with epilepsy; cited from earlier work
# [12] = system: a or β adrenergic, muscarinic, histaminergic, and dopaminergic receptors; settings: cited from earlier work
# [13] = cited from earlier work; remark: listed apart in the source
# uptake of dopamine = settings: cited from earlier work
# pain [14] = settings: relative to tramadol; cited from earlier work
# post-operative pain = settings: third molar surgery; cited from earlier work
# [15] = diabetic peripheral neuropathy trials; cited from earlier work
# [16] = fibromyalgia trials, cited from earlier work
# postherpetic neuralgia [17] = settings: cited from earlier work
# Fibromyalgia [18] = assay: Pain relief in fibromyalgia patients (Table 1); format: in vivo, human; settings: individual components at the doses present in TLI-0326 (40.4, 100, 200 mg/day); would have very little effect
# From the text: as §1
# Diabetic Neuropathy [19] = assay: Pain relief in diabetic neuropathy patients (Table 1); format: in vivo, human; settings: individual components at the doses present in TLI-0326 (40.4, 100, 200 mg/day); would have very little effect
# From the text: as §1
# μ-opiate receptor, sequence (P35372 whole entry, species assumed): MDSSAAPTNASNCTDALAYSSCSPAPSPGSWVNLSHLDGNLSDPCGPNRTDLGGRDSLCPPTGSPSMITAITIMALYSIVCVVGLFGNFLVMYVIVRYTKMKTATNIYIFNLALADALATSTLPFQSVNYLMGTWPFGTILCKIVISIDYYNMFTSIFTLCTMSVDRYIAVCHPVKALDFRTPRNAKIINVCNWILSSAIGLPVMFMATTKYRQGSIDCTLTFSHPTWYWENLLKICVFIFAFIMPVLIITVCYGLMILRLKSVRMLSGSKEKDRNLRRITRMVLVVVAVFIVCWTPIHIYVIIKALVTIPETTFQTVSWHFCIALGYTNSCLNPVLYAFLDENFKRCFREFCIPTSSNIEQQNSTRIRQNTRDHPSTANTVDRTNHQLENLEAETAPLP
compound,measurement,setting,value
"COc1cccc(C2(O)CCCCC2CN(C)C)c1 (racemic) [tramadol, (+/−)-trans (RR,SS)-2-[(di-methylamino)methyl]-1-(3-methoxyphenyl)cyclohexanol]","affinity for opiate receptors, fold less than codeine",μ-opiate receptor; relative to codeine,10 fold
same,"affinity for opiate receptors, fold less than d-propoxyphene",μ-opiate receptor; relative to d-propoxyphene,100 fold
same,affinity for opiate receptors relative to dextromethorphan,μ-opiate receptor; relative to dextromethorphan,equivalent
same,"affinity for opiate receptors, fold less than morphine",μ-opiate receptor; relative to morphine,"6,000 fold"
same,accumulation during multiple dose treatment,[1]; multiple dose treatment with tramadol,approximately 2 fold
same,bioavailability,[1]; oral administration,68%
same,time to peak serum concentrations,[1]; oral administration,≤ 2 h
same,half-life,[1]; single oral dose of 100 mg tramadol,5.1 h
same,reduction in pain,[2],30-40%
same,duration of the analgesic effect,pain [3],about 6 hours
CN(C)CCC=C1c2ccccc2CCc2ccccc21 [amitriptyline],share of patients with good or moderate response,postherpetic neuralgia [4],about two-thirds
same,share of patients with good or moderate response,[5],three-quarters
same,patients with superior relief compared with placebo,central poststroke pain,67%
"COc1cc(CNC(=O)CCCCC=CC(C)C)ccc1O [capsaicin, 8-methyl-N-vanillyl-6-nonenamide]","time to distribution to brain, spinal cord, liver and blood",[6],≤ 20 min
"C[C@@H]1CCC[C@](CN)(CC(=O)O)C1 [(1R,3R)3-MeGBP]",IC50,[7],> 10000 nM
same,reversal of neuropathy-induced allodynia,[8],ineffective
NCC1(CC(=O)O)CCCCC1 [Gabapentin],Pain Relief (percent of reduction in pain) Diabetic Neuropathy,Diabetic Neuropathy [9],<50%
same,Pain Relief (percent of reduction in pain) Fibromyalgia,Fibromyalgia [10],<50%
same,steady-state predose (Cmin) concentration in cerebrospinal fluid as share of plasma concentration,[11],approximately 20%
"CCN(CC)C(=O)C1(c2ccccc2)CC1CN.Cl (stereo not drawn) [milnacipran, 1-phenyl-1-diethyl-aminocarbonyl-2-aminomethyl-cyclopropane (Z) hydrochloride]",affinity for receptors,[12],no affinity
same,adverse event: constipation,[13]; 100 mg/day twice daily,10%
same,adverse event: headache,[13]; 100 mg/day twice daily,9%
same,adverse event: abdominal pain,[13]; 200 mg/day twice daily,7%
same,adverse event: headache,[13]; 200 mg/day twice daily,8%
same,adverse event: nausea and vomiting,[13]; 200 mg/day twice daily,7%
same,effect on uptake of dopamine,uptake of dopamine,does not affect
"CN(C)C[C@H]1CCCC[C@]1(O)c1cccc(O)c1 [O-desmethyltramadol (M1), O-desmethyltramadol]",analgesic potency relative to parent drug,pain [14],at least twice the analgesic potency of the parent drug
N[C@@H](Cc1c[nH]c2ccccc12)C(=O)O [tryptophan],effect on post-operative pain or consumption of other analgesics,post-operative pain,no effect
CC(C)C[C@H](CN)CC(=O)O [pregabalin],patients discontinued prematurely due to adverse reactions,[15],9%
same,"withdrawal due to asthenia, confusion, and peripheral edema (each)",[15],approximately 1%
same,patients discontinued prematurely due to adverse reactions,[16]; 150-600 mg/day,19%
same,"withdrawal due to fatigue, headache, balance disorder, and weight increased (each)",[16],approximately 1%
O=S(=O)([O-])[O-].[Mg+2] [Magnesium (present as magnesium sulfate)],pain scores compared with placebo,"postherpetic neuralgia [17]; 30 mg kg-1 i.v., at 20 and 30 min (P=0.016), not at 10 min",significantly lower
same,"safety, tolerability and efficacy","postherpetic neuralgia [17]; i.v., postherpetic neuralgia","safe, well-tolerated and effective"
same,Pain Relief (percent of reduction in pain) Fibromyalgia,Fibromyalgia [18],<10%
same,Pain Relief (percent of reduction in pain) Diabetic Neuropathy,Diabetic Neuropathy [19],<10%
COc1cccc(C2(O)CCCCC2CN(C)C)c1 (stereo not drawn) [Tramadol Hydrochloride],Pain Relief (percent of reduction in pain) Fibromyalgia,Fibromyalgia [18],<10%
same,Pain Relief (percent of reduction in pain) Diabetic Neuropathy,Diabetic Neuropathy [9],<35%
same,Pain Relief (percent of reduction in pain) Fibromyalgia,Fibromyalgia [10],<30%
same,Pain Relief (percent of reduction in pain) Diabetic Neuropathy,Diabetic Neuropathy [19],<10%
"C[C@@H]1CCC[C@@](CN)(CC(=O)O)C1 [(1S,3R)3-MeGBP]",IC50,[7],42 nM
same,reversal of neuropathy-induced allodynia,[8],effectively reversed
